The values below come from ChEMBL document CHEMBL1255477, “In vitro properties of BAL30072, a novel siderophore sulfactam with activity against multiresistant gram-negative bacilli” (Antimicrob Agents Chemother, 2010).

Assay type in all cases: functional
Test [1] deals with Stenotrophomonas maltophilia. Nature of the test: Antimicrobial activity against Stenotrophomonas maltophilia 1AC736 assessed as number of passages required for MIC to rise above 4 times original MIC.
The subject of test [2] is Pseudomonas aeruginosa. The test is described as follows: Antimicrobial activity against Pseudomonas aeruginosa 527 assessed as number of passages required for MIC to rise above 4 times original MIC.
Test [3] concerns Pseudomonas aeruginosa. The test is described as follows: Antimicrobial activity against mexAB-oprM, mexCD-oprJ, mexEF-oprN, mexJK, mexXY, opmH and pscC gene deficient Pseudomonas aeruginosa PAO750 by broth dilution method. (Broth dilution looks for growth in wells or tubes with falling amounts of substance.)
Test [4] concerns Pseudomonas aeruginosa. The test is described as follows: Antimicrobial activity against mexAB-oprM protein and mexCD-oprJ deficient Pseudomonas aeruginosa PAO253 overexpressing MexEF-OprN gene by broth dilution method.
The subject of test [5] is Pseudomonas aeruginosa. The test is described as follows: Antimicrobial activity against mexAB-oprM protein and mexCD-oprJ deficient Pseudomonas aeruginosa PAO238 by broth dilution method.
For test [6], the system named is Pseudomonas aeruginosa. Nature of the test: Antimicrobial activity against mexAB-oprM protein and mexZ deficient Pseudomonas aeruginosa PAO267 by broth dilution method.
In test [7] the test system is Pseudomonas aeruginosa. The test is described as follows: Antimicrobial activity against Pseudomonas aeruginosa BA assessed as number of passages required for MIC to rise above 4 times original MIC.
The test system of the next test is Klebsiella pneumoniae. Nature of the test: Antimicrobial activity against Klebsiella pneumoniae 1338665 assessed as number of passages required for MIC to rise above 4 times original MIC.
The subject of the next test is Acinetobacter baumannii. The test is described as follows: Antimicrobial activity against Acinetobacter baumannii HPA74510 assessed as number of passages required for MIC to rise above 4 times original MIC.
Another test relates to Acinetobacter junii. Nature of the test: Antimicrobial activity against Acinetobacter junii 15218 assessed as number of passages required for MIC to rise above 4 times original MIC.

The MIC is the lowest concentration found to suppress growth.

SMILES strings stand for the structures. Values after ≈ are worked out from the molar mass of the structure shown. Active and inactive are the calls of the source. The rule behind the calls is not given here.

Regarding `O=C(O)c1cn(C2CC2)c2cc(N3CCNCC3)c(F)cc2c1=O` [CIPROFLOXACIN], the result (in [1]; with Klebsiella pneumoniae; in the test on Acinetobacter baumannii) was inactive. In addition, the Activity in the test on Pseudomonas aeruginosa [2] stood at 3 passages; in the test on Pseudomonas aeruginosa [7] it was 2 passages; in the test on Acinetobacter junii, 12 passages. The MIC with Pseudomonas aeruginosa [3] was at most 0.06 µg/mL; in the test on Pseudomonas aeruginosa [4], 1 µg/mL (≈ 3.02 µM); against Pseudomonas aeruginosa [5], at most 0.06 µg/mL; in the test with Pseudomonas aeruginosa [6], at most 0.06 µg/mL.
